# What was measured:
# [1] = Human clinical biocomparison study: oral absorption of Formulation 1 with and without pH-raising medication; settings: in vivo, 100 mg, healthy subjects
# Protocol: FIG. 1 outlines the process used to make Formulation 1.
# The oral absorption obtained from Formulation 1 with and without pH-modifying medications was evaluated as part of human clinical study. Formulation 1 was dosed by itself (Treatment 1) and in the presence of a medication that raises gastric pH (Treatment 2).
# [2] = Human clinical biocomparison study: oral absorption from grazoprevir and Formulation 3 with and without pH-raising medication; settings: in vivo, 100 mg grazoprevir/50 mg Compound I, healthy subjects
# Protocol: The Formulation 2 spray dried intermediate was blended and roller compacted along with microcrystalline cellulose, lactose, croscarmellose sodium, sodium chloride, colloidal silicon dioxide, and magnesium stearate. Only half of the magnesium stearate was added prior to roller compaction. The second half of the magnesium stearate and the remaining croscarmellose sodium was added after roller compaction and the resulting powder mix was blended further.
# The oral absorption obtained from grazoprevir and Formulation 3 with (Treatment 2) and without (Treatment 1) co-administration of a pH-raising medication was evaluated as part of human clinical study.
# [3] = Treatment 1: Formulation 1 dosed by itself
# [4] = Treatment 1: grazoprevir and Formulation 3 without pH-raising medication
structure (smiles),measurement,setting,value
"COC(=O)N[C@H](C(=O)N1CCC[C@H]1c1nc(-c2ccc3c(c2)O[C@@H](c2ccccc2)n2c-3cc3cc(-c4c[nH]c([C@@H]5CCCN5C(=O)[C@@H](NC(=O)OC)C(C)C)n4)ccc32)c[nH]1)C(C)C [Compound I, dimethyl N,N′-([(6S)-6-phenylindolo[1,2-c][1,3]benzoxazine-3,10-diyl]bis {1H-imidazole-5,2-diyl-(2S)-pyrrolidine-2,1-diyl[(2S)-3-methyl-l-oxobutane-1,2-diyl]})dicarbamate]",AUC(0-inf),[1]; [3],3.77 µM·h
same,Cmax,[1]; [3],216 nM
same,AUC(0-inf),[1]; Treatment 2: Formulation 1 with pH-raising medication,1.57 µM·h
same,AUC(0-inf),[2]; [4],1.97 µM·h
same,Cmax,[2]; [4],102 nM
same,AUC(0-inf),[2]; Treatment 2: grazoprevir and Formulation 3 with pH-raising medication,1.79 µM·h
